From US7943580B2, “Polypeptide and the use thereof” (National Cerebral and Cardiovascular Center, priority 2004, dated 2011)

Tests used:
chick rectum = experiment: Contractile activity on the chick rectum; conditions: dose of 10 pmol, 37° C., Krebs-Henseleit solution
Protocol: Contraction of the rectum was then measured.

c-Fos protein = experiment: Immunostaining for c-Fos protein in the suprachiasmatic nucleus after intracerebroventricular administration; type: in vivo, rat; conditions: intracerebroventricular 1 nmol at CT6, 90 minutes after administration, compared to physiological saline
Protocol: Male Wistar rats (300-350 g) were used for the experiment of circadian rhythm phase shift. Intracerebroventricular administration was performed in accordance with the method of Ida et al. (Ida, T., et al., (1999) Brain Res., 821, 526, 1999). The spontaneous locomotor activity was measured by the method of Nakahara et al. (Nakahara, K., et al., Biochem. Biophys. Res. Commun., 318, 156, 2004). The phase shift of spontaneous locomotor activity rhythm was calculated based on the distance between the lines drawn by plotting a delay in time of daily onset of spontaneous locomotor activity for at least 10 days before and after the intracerebroventricular administration of NMS or physiological saline. […] Phase-response data were evaluated using one-way ANOVA followed by Scheffe's multiple comparisons test. […] The spontaneous locomotor activity was recorded for 2 weeks before and after the administration, respectively, according to the method of Nakahara et al. (Nakahara, K., et al., Biochem. Biophys. Res. Commun., 318, 156, 2004). At the conclusion of the experiment, the exact location of the cannula was determined histologically as follows. […] The sections were analyzed by comparing to the corresponding rat brain atlas of Paxinos and Watson (Paxinos, G. and Watson, C., The rat brain in stereotaxic coordinates, Academic Press, New York, USA, 1998). […]

conscious rats [1] = experiment: Prolactin release suppressing activity by central administration of NMS; type: in vivo, rat; conditions: 20 minutes after central administration of 1 nmol
Protocol: (§1) A catheter was placed in the lateral ventricle of Wistar rats (male, 8 weeks old) and housed under controlled conditions with free access to their diet, while they were accustomed to experimental procedures (22°, light-on from 7:00 to 19:00). […] (1) For feed intake during the dark phase, NMS was administered at 18:00 and their feed intake was measured during 19:00 to 7:00. In addition, (2) NMS was administered to 14 hour-fasted rats at 9:00 and immediately thereafter the feed intake was measured for 2 hours.
Changes in prolactin blood level by central administration of NMS were monitored. Central administration to conscious rats was performed as in EXAMPLE 9. Blood was collected by decapitation 20 minutes after peptide administration. Prolactin was assayed using RIA kit (Amersham).

Sprague-Dawley rats = experiment: Hypertensive activity by transvenous administration to rat; conditions: dose of 3 nmol/kg, pentobarbital-anesthetized rats
Wistar rats [2] = experiment: Effect on feed intake by central administration; type: in vivo, rat
Protocol: as §1

Wistar rats [3] = experiment: Phase shift of circadian rhythms in spontaneous locomotor activity; type: in vivo, rat
Protocol: Male Wistar rats (300-350 g) were used for the experiment of circadian rhythm phase shift. Intracerebroventricular administration was performed in accordance with the method of Ida et al. (Ida, T., et al., (1999) Brain Res., 821, 526, 1999). The spontaneous locomotor activity was measured by the method of Nakahara et al. (Nakahara, K., et al., Biochem. Biophys. Res. Commun., 318, 156, 2004). The phase shift of spontaneous locomotor activity rhythm was calculated based on the distance between the lines drawn by plotting a delay in time of daily onset of spontaneous locomotor activity for at least 10 days before and after the intracerebroventricular administration of NMS or physiological saline. The onset time of spontaneous locomotor activity was designated as CT12 (circadian time 12). Phase-response data were evaluated using one-way ANOVA followed by Scheffe's multiple comparisons test. […] At 90 minutes after the administration, rats were perfused with 2% paraformaldehyde. Immunostaining for c-Fos protein was performed according to the method of Date et al. (Date, Y, et al., Proc. Natl. Acad. Sci. USA, 96, 748, 1999). The intra-suprachiasmatic nucleus perfusion was performed by an improvement of the Piggins et al. method (Piggins, H. D., et al., J. Neurosci., 15, 5612, 1995). Rats were allowed to free run under constant dark conditions for 2 weeks. Each rat was then implanted with a 26-gauge stainless steel guide cannula in the stereotaxic coordinates by Paxinos and Watson (Paxinos, G. and Watson, C., The rat brain in stereotaxic coordinates, Academic Press, New York, USA, 1998) to reach the suprachiasmatic nucleus. […] The spontaneous locomotor activity was recorded for 2 weeks before and after the administration, respectively, according to the method of Nakahara et al. (Nakahara, K., et al., Biochem. Biophys. Res. Commun., 318, 156, 2004). At the conclusion of the experiment, the exact location of the cannula was determined histologically as follows. Rats received 1 μl of India ink to mark the administered site and were then decapitated. The brain was immediately frozen and cut on a cryostat into 20 μm coronal sections, followed by staining with Crystal Violet. The sections were analyzed by comparing to the corresponding rat brain atlas of Paxinos and Watson (Paxinos, G. and Watson, C., The rat brain in stereotaxic coordinates, Academic Press, New York, USA, 1998). When data obtained for the location was more than 200 μm away from the external border of the suprachiasmatic nucleus, the data was excluded from further analysis.

conscious rats [4] = experiment: Blood hormone levels after central administration of NUNP and NSNP; type: in vivo, rat; conditions: 20 minutes after central administration of 1 nmol
pituitary anterior cells = experiment: Prolactin release from primary culture of anterior pituitary cells; type: cell-based; conditions: primary culture of rat anterior pituitary cells, supernatant recovered 30 minutes after addition
Protocol: (§2) Changes in prolactin blood level by central administration were monitored. Central administration to conscious rats was performed in the same way as in EXAMPLE 9. The animal received rat NUNP-36 or rat NSNP-37 prepared by the procedure of EXAMPLE 14 and dissolved in physiological saline and then decapitated, followed by blood collection in 20 minutes or blood collection via the tail vein at each time after peptide administration. Prolactin was measured using RIA kit (Amersham). A direct effect on pituitary anterior cells was also examined. The pituitary anterior cells were prepared from Wistar rats (5 week old, male), incubated in a 96-well plate for 2 days and used for the experiment. After rat NUNP-36 or rat NSNP-37 was added, the culture supernatant was recovered 30 minutes after and the prolactin level was measured.

conscious rats [5] = experiment: Blood hormone levels after central administration of NUNP and NSNP; type: in vivo, rat; conditions: for prolactin level in blood: 20 minutes after central administration of 1 nmol
Protocol: as §1, §2

For “LPRLLHTDSRMATIDFPKKDPTTSLGRPFFLFRPRN [rat NMS]”, the “contraction of the chick rectum” value (chick rectum) was “significant contractile activity”, the “expression of c-Fos protein in the suprachiasmatic nucleus” value (c-Fos protein) was “increased” and the blood prolactin level (conscious rats [1]) was 3.6 ± 1.2 ng/mL. The “blood pressure of rats” value (Sprague-Dawley rats) was “significantly increased the blood pressure”, the “2 hour feed intake of fasted rats” value (Wistar rats [2]; 0.5 nmol into the lateral ventricle, 14 hour-fasted rats) was “significantly suppressed the feed intake” and the “feed intake during the dark phase” value (Wistar rats [2]; administered into the lateral ventricle at 18:00, feed intake measured 19:00 to 7:00) was “significantly suppressed the feed intake dose-dependently”. The “dose at which the feed intake suppressing effect showed the maximum” value (Wistar rats [2]; dark phase feed intake, lateral ventricle administration) was 1 nmol, the “phase of spontaneous locomotor activity” value (Wistar rats [3]; intracerebroventricular 1 nmol at CT3-9, constant dark conditions) was “advances in the phase” and the “phase of spontaneous locomotor activity” value (Wistar rats [3]; intracerebroventricular 1 nmol at CT22-24, constant dark conditions) was “delays in the phase”. For the same substance, the “phase of spontaneous locomotor activity” value (Wistar rats [3]; intracerebroventricular 1 nmol at any other time, constant dark conditions) was “No phase shift was observed”, the “length of circadian rhythm” value (Wistar rats [3]; intracerebroventricular administration, any time) was “not affected” and the “phase of circadian rhythms of spontaneous locomotor activity” value (Wistar rats [3]; microinjected directly into the suprachiasmatic nucleus at CT6) was “phase advances”. The “phase of circadian rhythms of spontaneous locomotor activity” value (Wistar rats [3]; microinjected directly into the suprachiasmatic nucleus at CT23) was “delays”.

With “rat NSNP-37: rat neuromedin S N-terminal peptide-37, SEQ ID NO: 10 (FLFHYSRAWKSTHPVNSEFAPVHPLMRLAAKLPSRRM; listed as Rattus norvegicus)” the “follicle-stimulating hormone level in blood” value (conscious rats [4]) was 10.64 ± 0.72 ng/mL, the “other blood hormone (growth hormone, luteinizing hormone, corticosterone) levels” value (conscious rats [4]) was “any significant change was not noted” and the “thyroid-stimulating hormone level in blood” value (conscious rats [4]) was 5.37 ± 0.51 ng/mL.

In the case of “rat NUNP-36: rat neuromedin U N-terminal peptide-36, SEQ ID NO: 40 (FLFHYSKTQKLGNSNVVSSVVHPLLQLVPQLHERRM; listed as Rattus norvegicus)”, the “prolactin in the culture supernatant” value (pituitary anterior cells) is reported as “no change was noted”, the “follicle-stimulating hormone level in blood” value (conscious rats [4]) is reported as 12.26 ± 0.95 ng/mL and the “other blood hormone (growth hormone, luteinizing hormone, corticosterone) levels” value (conscious rats [4]) is reported as “any significant change was not noted”. For the same substance, the “thyroid-stimulating hormone level in blood” value (conscious rats [4]) was 4.92 ± 0.22 ng/mL, the “prolactin level in blood” value (conscious rats [5]) was 68.74 ± 10.4 ng/mL and the “prolactin level in blood” value (conscious rats [5]; listed as Rat NUNP-36) was 27.34 ± 5.63 ng/mL. For the same substance, the “time at which the prolactin level reached the peak” value (conscious rats [5]; central administration at 1 nmol and 0.2 nmol) was 20 min and the “prolactin level in blood, dose and time dependency” value (conscious rats [5]; since 10 minutes after central administration at 1 nmol and 0.2 nmol) was “significant increase of prolactin level”.
